Laboratory results reported in EP0897923A1, “BENZOQUINOLIZINE DERIVATIVES AND MEDICINAL COMPOSITIONS” (priority 1996, dated 1997).
Marks after values point to notes of the source that are not given here.

Key:
Type in all cases: in vivo
SD rats [1] = assay: Effect on an IBS model (2): wrap-restraint stress, weight of fecal pellets, oral administration; conditions: for Inhibition (%) vs. control: weight of fecal pellets in one hour, male SD rats; for defecation accelerated by stress: result in words, summary of Test Examples 2 and 3, oral dose levels 10 and 30 mg/kg
Description: Six-week-old male SD rats, non-fasted, were used in groups of 8 individuals. In accordance with the method of Williams et al. (Gastroenterology, 1988; 94:611-621), animals in the control group and treatment groups were loaded with a wrap-restraint stress while those in the normal group were not loaded and weight (g) of the fecal pellets in the subsequent one-hour period was determined. In the treatment groups, a predetermined dose of the corresponding test drug was administered orally 60 minutes before stress loading. As reference control drugs, N-methyl-N-[(2RS,11bSR)-1,3,4,6,7,11b-hexahydro-2H-benzo[a]quinolizin-2-yl]propanesulfonamide hydrochloride (hereinafter referred to as Compound A) and N-(2-methanesulfonamidoethyl)-N-[(2RS,11bSR)-1,3,4,6,7,11b-hexahydro-2H-benzo[a]quinolizin-2-yl]benzenesulfonamide hydrochloride (hereinafter referred to as compound B), both of which are described in Japanese Laid-open S62-67031 as having gastrointestinal peristalsis-modulating activity were used. The inhibition rate (%) was calculated by means of the following equation. Inhibition rate = [(C-D)/(C-N)] x 100 [formula] where C represents the weight of the fecal pellets in the control group, D represents the weight of the fecal pellets in the treatment group, and N represents the weight of the fecal pellets in the normal group. Statistical significance of the treatment group versus the control group was tested by Dunnett's multiple comparison.

SD rats [2] = assay: Effect on an IBS model (3): water avoidance stress, number of fecal pellets, oral administration; conditions: number of fecal pellets in one hour, male SD rats
Description: Six-week-old male SD rats were used in groups of 8 individuals. In accordance with the method of Enck et al. (Gut, 1989; 30:455-459), animals in the control group and treatment groups were loaded with water avoidance stress, while those in the normal groups were not loaded and the number of fecal pellets during the subsequent one-hour period was determined. In the treatment groups, a predetermined dose of the corresponding test drug was administered orally 60 minutes before stress loading. As reference control drugs, Compound A and Compound B mentioned above were used. The inhibition rate (%) was calculated by means of the following equation. Inhibition rate (%) = [(NC-ND)/(NC-NN)] x 100 [formula] where NC represents the number of the fecal pellets in the control group, ND represents the number of the fecal pellets in the treatment group, and NN represents the number of the fecal pellets in the normal group. Statistical significance of the treatment group versus the control group was tested by Dunnett's multiple comparison.

ddY mice = assay: Acute toxicity test; conditions: fasted male ddY mice, deaths during one week
Description: Six-week-old male ddY mice were used in groups of 5 individuals. The animals were fasted from the previous day (16-18 hours before the experiment) and a predetermined dose of the compound of the invention was administered orally. The number of deaths during the subsequent one-week period was investigated.

SD rats [3] = assay: Effect on an IBS model (1): wrap-restraint stress, weight of fecal pellets, subcutaneous administration; conditions: 3 mg/kg subcutaneously 30 minutes before wrap-restraint stress, weight of fecal pellets in one hour, male SD rats
Description: Six-week-old male SD rats, non-fasted, were used in groups of 8 individuals. In accordance with the method of Williams et al. (Gastroenterology, 1988; 94:611-621), animals in the control group and treatment groups were loaded with a wrap-restraint stress while those in the normal group were not loaded and weight (g) of fecal pellets in the subsequent one-hour period was determined. In the treatment groups, a predetermined dose of the corresponding test drug was administered subcutaneously 30 minutes before stress loading. The inhibition rate (%) was calculated by means of the following equation. Inhibition rate = [(C-D)/(C-N)] x 100 [formula] where C represents the weight of the fecal pellets in the control group, D represents the weight of the fecal pellets in the treatment group, and N represents the weight of the fecal pellets in the normal group. Statistical significance of the treatment group versus the control group was tested by Dunnett's multiple comparison.

[4] = 10 mg/kg orally 60 minutes before wrap-restraint stress
[5] = 30 mg/kg orally 60 minutes before wrap-restraint stress
[6] = 30 mg/kg orally 60 minutes before water avoidance stress
[7] = 10 mg/kg orally 60 minutes before wrap-restraint stress, hydrochloride

CCCS(=O)(=O)N(C)[C@@H]1CCN2CCc3ccccc3[C@@H]2C1.Cl (racemic) [Compound A, N-methyl-N-[(2RS,11bSR)-1,3,4,6,7,11b-hexahydro-2H-benzo[a]quinolizin-2-yl]propanesulfonamide hydrochloride, reference compound]
Inhibition (%) vs. control (SD rats [1]; [4]): -1.2%
Inhibition (%) vs. control (SD rats [1]; [5]): 1.4%
defecation accelerated by stress (SD rats [1]): did not inhibit defecation accelerated by stress
Inhibition (%) vs. control (SD rats [2]; [6]): -20.7%

CCN([C@@H]1CCN2CCc3cc(OC)ccc3[C@@H]2C1)S(C)(=O)=O.Cl [Compound No. 21, N-Ethyl-N-[(2R,11bS)-9-methoxy-1,3,4,6,7,11b-hexahydro-2H-benzo[a]quinolizin-2-yl]methanesulfonamide hydrochloride]
Inhibition (%) vs. control (SD rats [1]; [4]): 64.6** %
Inhibition (%) vs. control (SD rats [1]; [5]): 92.6** %
Dead/Total (ddY mice; 250 mg/kg orally): 0/5

CS(=O)(=O)NCCN([C@@H]1CCN2CCc3ccccc3[C@@H]2C1)S(=O)(=O)c1ccccc1.Cl (racemic) [Compound B, N-(2-methanesulfonamidoethyl)-N-[(2RS,11bSR)-1,3,4,6,7,11b-hexahydro-2H-benzo[a]quinolizin-2-yl]benzenesulfonamide hydrochloride, reference compound]
Inhibition (%) vs. control (SD rats [1]; [4]): -4.7%
Inhibition (%) vs. control (SD rats [1]; [5]): -30.0%
defecation accelerated by stress (SD rats [1]): did not inhibit defecation accelerated by stress
Inhibition (%) vs. control (SD rats [2]; [6]): -58.3%

COc1ccc2c(c1)CCN1CC[C@@H](N(C)S(=O)(=O)c3ccccc3)C[C@@H]21.Cl (racemic) [Compound No. 7, N-methyl-N-[(2RS,11bSR)-9-methoxy-1,3,4,6,7,11b-hexahydro-2H-benzo[a]quinolizin-2-yl]benzenesulfonamide hydrochloride]
Inhibition (%) vs. control (SD rats [3]): 76.6** %

COc1ccc2c(c1)CCN1CC[C@@H](N(C)S(=O)(=O)N(C)C)C[C@@H]21.Cl (racemic) [Compound No. 16, N,N-Dimethyl-N'-[(2RS-11bSR)-9-methoxy-1,3,4,6,7,11b-hexahydro-2H-benzo[a]quinolizin-2-yl]-N'-methylsulfamide hydrochloride]
Inhibition (%) vs. control (SD rats [1]; [4]): 73.3** %
Inhibition (%) vs. control (SD rats [1]; [5]): 91.7** %
Dead/Total (ddY mice; 300 mg/kg orally): 0/5

COc1ccc2c(c1)CCN1CC[C@@H](N(C)S(=O)(=O)c3ccc(F)cc3)C[C@@H]21.Cl (racemic) [Compound No. 13, N-methyl-N-[(2RS,11bSR)-9-methoxy-1,3,4,6,7,11b-hexahydro-2H-benzo[a]quinolizin-2-yl]-4-fluorobenzenesulfonamide hydrochloride]
Inhibition (%) vs. control (SD rats [3]): 72.4** %

CCS(=O)(=O)N(C)[C@@H]1CCN2CCc3cc(OC)ccc3[C@@H]2C1.Cl [Compound No. 20, N-Methyl-N-[(2R,11bS)-9-methoxy-1,3,4,6,7,11b-hexahydro-2H-benzo[a]quinolizin-2-yl]ethanesulfonamide hydrochloride]
Inhibition (%) vs. control (SD rats [1]; [4]): 69.4** %
Inhibition (%) vs. control (SD rats [1]; [5]): 88.9** %

COc1ccc(S(=O)(=O)N(C)[C@@H]2CCN3CCc4cc(OC)ccc4[C@@H]3C2)cc1.Cl (racemic) [Compound No. 6, N-Methyl-N-[(2RS,11bSR)-9-methoxy-1,3,4,6,7,11b-hexahydro-2H-benzo[a]quinolizin-2-yl]-4-methoxybenzenesulfonamide hydrochloride]
Inhibition (%) vs. control (SD rats [3]): 86.2** %
Dead/Total (ddY mice; 100 mg/kg orally): 0/5

COc1ccc2c(c1)CCN1CC[C@@H](N(C)S(C)(=O)=O)C[C@@H]21.Cl (racemic) [Compound No. 1, N-Methyl-N-[(2RS,11bSR)-9-methoxy-1,3,4,6,7,11b-hexahydro-2H-benzo[a]quinolizin-2-yl]methanesulfonamide hydrochloride]
Inhibition (%) vs. control (SD rats [3]; hydrochloride): 97.7** %
Inhibition (%) vs. control (SD rats [1]; [7]): 53.2* %
Inhibition (%) vs. control (SD rats [1]; [5]): 96.6** %
Inhibition (%) vs. control (SD rats [2]; [6]): 81.8* %
Dead/Total (ddY mice; 100 mg/kg orally): 0/5

COc1ccc2c(c1)CCN1CC[C@@H](N(C)S(=O)(=O)c3cc(OC)ccc3OC)C[C@@H]21.Cl (racemic) [Compound No. 14, N-methyl-N-[(2RS,11bSR)-9-methoxy-1,3,4,6,7,11b-hexahydro-2H-benzo[a]quinolizin-2-yl]-2,5-dimethoxybenzenesulfonamide hydrochloride]
Inhibition (%) vs. control (SD rats [3]): 75.6** %

COc1ccc2c(c1)CCN1CC[C@@H](N(C)S(C)(=O)=O)C[C@@H]21.Cl [Compound No. 18, N-Methyl-N-[(2R,11bS)-9-methoxy-1,3,4,6,7,11b-hexahydro-2H-benzo[a]quinolizin-2-yl]methanesulfonamide hydrochloride]
Inhibition (%) vs. control (SD rats [3]; hydrochloride): 96.6** %
Inhibition (%) vs. control (SD rats [1]; [7]): 91.1** %
Inhibition (%) vs. control (SD rats [2]; 3 mg/kg orally 60 minutes before water avoidance stress): 72.4* %
Inhibition (%) vs. control (SD rats [2]; 10 mg/kg orally 60 minutes before water avoidance stress): 82.9** %
Dead/Total (ddY mice; 250 mg/kg orally): 0/5
